One experiment concerns xanthine oxidase (XOD). The experiment can be described thus: Affinity ultrafiltration LC-MS/MS with XOD (relative binding affinity). The following applies: peaks of WUE-A4, XOD 2 U, 37 °C 1 h, n = 3. As to the method:
(§1) The experimental conditions were proposed according to previous relevant studies. Briefly, the optimized experiment was composed of three steps. Incubation was the first step, where 100 μL WUE-A4 (10.0 mg/mL), 10 µL SOD (2 U) or XOD (2 U), and 90 µL Tris-HCl (pH = 7.8) were mixed well in 1.5 mL EP tubes, and then incubated at 37 °C in the dark for 1 h. Meanwhile, the incubation operations of inactivated enzymes (inactivated enzymes were obtained by heating enzymes in a 99 °C water bath for 10 min) were the same as the active enzymes. Adsorption was the second step, where the incubated solutions were transferred to ultrafiltration tubes with 30 KDa (for SOD) or 10 KDa (for XOD) ultrafiltration membranes and then centrifuged at 10,000 rpm for 10 min at 25 °C. Simultaneously, components which had no binding affinity to enzymes were washed out. Immediately, 300 µL of Tris-HCl solution (pH = 7.8) was added to the ultrafiltration tubes and centrifuged at 10,000 rpm for 5 min at 25 °C to remove the potential unbound components. Desorption was the third step, where 300 µL of 90% (v/v) MeOH-H2O was added and incubated for 10 min at room temperature, and the mixed solutions were centrifuged at 10,000 rpm for another 10 min at 25 °C. After that, the desorption process was repeated two times to release those components with specific bindings to SOD or XOD from the enzyme-ligand complexes. Finally, those ultrafiltrates were dried and reconstituted in 50 µL MeOH for the HPLC-UV/ESI-MS/MS analysis.
(§2) HPLC-UV/ESI-MS/MS was carried out to characterize the components in WUE-A4 before and after ultrafiltration by using a Thermo Accela 600 series HPLC connected with a TSQ Quantum Access MAX mass spectrometer (Thermo Fisher Scientific, San Jose, CA, USA). A Waters Symmetry RP-C18 column (4.6 × 250 mm, 5 µm) was used to perform chromatographic analysis at 30 °C, and the mobile phase consisted of H2O with 0.1% formic acid (A) and ACN (B). The optimized HPLC elution procedures were as follows: 0–15 min, 17% B; 15–40 min, 17–30% B, 40–42 min: 30–56% B. The flow rate was 0.8 mL/min, the injection volume was 10 µL, and the HPLC-UV chromatograms were detected at a wavelength of 254 nm. The negative ion modes were applied to obtained ESI-MS/MS data. Moreover, the parameters of instrument were set as follows: the vaporizer temperature was 350 °C, the capillary temperature was 250 °C, the spray voltage was 3000 V, the cone voltage energy was 40 V, the collision energy was 10 V, the sheath gas pressure was 40 psi, the aux gas pressure was 10 psi, the drying gas flow rate was 6.0 L/min, and the mass range was set from 50 to 1100 (m/z) in the full-scan mode. Finally, the Thermo Xcalibur ChemStation (Thermo Fisher Scientific) was used for data acquisition and analysis.
(§3) For further evaluation of the affinity binding strength between the potential ligands and the target enzymes, the relative binding affinity (RBA) was employed to compare the variation of the correlated peak areas in the UF-HPLC-UV chromatograms before and after activation. The RBA formula is expressed as RBA = Aactive/Ainactivated, where the Aactive and Ainactivated represent the peak areas obtained from the WUE-A4 samples with activated and inactivated SOD or XOD, respectively.

In experiment [1] the test system is superoxide dismutase (SOD). The experiment can be described thus: Affinity ultrafiltration LC-MS/MS with SOD (relative binding affinity). More on the design: key: -: No binding affinity. The following applies: peaks of WUE-A4, SOD 2 U, 37 °C 1 h, n = 3. As to the method:
as §1, §2, §3

Experiment [2] is described as follows: ABTS free radical scavenging assay. The following applies: 30 min, 734 nm, n = 3; for IC50: pure compounds. As to the method:
The ABTS free radical scavenging activities of extracts and pure compounds from stem barks of W. ugandensis were tested according to previous studies with slight modifications. ABTS^+ solution was prepared by mixing equal volumes of potassium persulfate (4.9 mM in H2O) and ABTS (7.0 mM in H2O) and then incubated for 12 h in the darkness. The prepared ABTS^+ solution was diluted with MeOH to ensure an absorbance value about 0.700 ± 0.005 at 734 nm. Firstly, 10 µL of appropriately diluted solution of samples was added to the 190 µL ABTS^+ solution in 96-well plate. Secondly, the mixtures were gently shaken and put at room temperature for 30 min in the darkness. Finally, the absorbance was recorded at 734 nm with multifunctional microplate reader. Trolox was used as positive control, and MeOH was used as blank control. Samples and controls were tested in triplicate (n = 3). The antioxidant activities of ABTS were expressed as IC50 and TEAC values. The inhibition of the ABTS radicals was calculated according to the following formula:ABTS scavenging activity (%) = (1 − absorbance of sample/absorbance of blank control) × 100,(2) where ABTS scavenging activities (%) were plotted against the concentration of samples to acquire the IC50.

Experiment [3] can be described thus: Ferric reducing antioxidant power (FRAP) assay. The following applies: 37 °C, 10 min, 593 nm, n = 3. As for the experimental part:
The ferric reducing antioxidant power assays on different extracts and pure compounds of stem barks from W. ugandensis were tested according to previous studies with slight modifications. Firstly, freshly prepared FRAP reagent (Fe^3+-TPTZ solution) was composed of FeCl3∙6H2O (20 mM in H2O), TPTZ (10 mM in 40 mM HCl), and acetate buffer (300 mM, pH = 3.6) at a ratio of 1:1:10 (v/v/v), then incubated at 37 °C after preparation, and used within 1–2 h. Secondly, 10 µL of appropriately diluted solution of samples was added to the 190 µL freshly prepared FRAP reagent in 96-well plate. Thirdly, the mixtures were gently shaken and put at 37 °C for 10 min. Finally, the absorbance was recorded at 593 nm with multifunctional microplate reader. Trolox was used as a positive control, and MeOH was used as blank control. Each of the samples and controls were tested in triplicate (n = 3). The antioxidant activities of FRAP were expressed as FRAP values and TEAC values. The FRAP values were calculated and expressed as millimoles of Fe^2+ equivalents per gram of sample (mmol Fe^2+/g) based on a calibration curve plotted using FeSO4∙7H2O as standard at a concentration ranging from 0.0185 to 1.5 mM.

Experiment [4] can be described thus: DPPH free radical scavenging assay. The following applies: 30 min, 517 nm, n = 3; for IC50: pure compounds. As to the method:
The DPPH free radical scavenging activities of extracts and pure compounds from stem barks of W. ugandensis were tested according to previous studies with slight modifications. Firstly, 10 µL solutions of the samples, appropriately diluted with MeOH, were homogeneously mixed with 190 µL solution of DPPH (0.1 mM in MeOH) in a 96-well plate. Secondly, the mixtures were gently shaken and put at room temperature for 30 min in the darkness. Finally, the absorbance was recorded at 517 nm with multifunctional microplate reader. Trolox was used as positive control, and MeOH was used as blank control. Each of the samples and controls were tested in triplicate (n = 3). The antioxidant activities of DPPH were expressed as IC50 (concentration of samples caused 50% inhibition) and TEAC values. The TEAC values were calculated from the standard curve of Trolox and expressed as millimoles of Trolox equivalents per gram of sample (mmol TE/g). The inhibition of the DPPH radical was calculated according to the following formula:DPPH scavenging activity (%) = (1 − absorbance of sample/absorbance of blank control) × 100,(1) where DPPH scavenging activities (%) were plotted against the concentration of samples to obtain the IC50.
In general terms: The DPPH test is a chemical assay of radical scavenging.

Values joined by “and” are separate entries in the source; they are usually repeats but may differ in a detail not shown here. Equal entries are not always repeated. Marks after values point to notes of the source that are not given here.

In the case of `O=C1OCC2OC(Oc3ccc(cc3)C(=O)OCC3OC(Oc4ccc1cc4)C(O)C(O)C3O)C(O)C(O)C2O` [compound 5, 4-[(6′-O-β-D-allopyranosyl)-oxy]-hydroxy-benzoic acid cyclic dimeric inner ester], the “UF-RBA XOD (relative binding affinity = Aactive/Ainactivated)” value in the experiment on xanthine oxidase (XOD) is 1.2 ± 0.1 ^c,d. Further, in experiment [1], the “UF-RBA SOD (relative binding affinity = Aactive/Ainactivated)” value is listed as 1.1 ± 0.1 ^e.

Take `C[C@@H]1O[C@@H](O[C@@H]2[C@@H](O)[C@H](O)[C@@H](CO)O[C@H]2c2cc(-c3cc(=O)c4c(O)cc(O)cc4o3)ccc2O)[C@H](O)[C@H](O)[C@H]1O` [compound 3, 2-[3-[2-O-(6-deoxy-α-L-mannopyranosyl)-β-D-glucopyranosyl]-4-hydroxyphenyl]-5,7-dihydroxy-4H-1-benzopyran-4-one]: in the experiment with xanthine oxidase (XOD), the “UF-RBA XOD (relative binding affinity = Aactive/Ainactivated)” value is on record as 1.0 ± 0.2 ^d. Moreover, the “UF-RBA SOD (relative binding affinity = Aactive/Ainactivated)” value in experiment [1] is on record as 2.0 ± 0.1 ^a,b; in experiment [1] (listed as peak 3), 1.99.

In the case of `Cc1c(C)c2c(c(C)c1O)CCC(C)(C(=O)O)O2` (stereo not shown) [Trolox, 6-Hydroxy-2,5,7,8-tetramethylchroman-2-carboxylic acid, reference compound], the “ABTS IC50” value in experiment [2] (extracts/fractions) is 5.9 ± 0.1 ^e µg/mL. The IC50 (usually the concentration at which inhibition is half-maximal) in experiment [2] worked out at 22.4 µM; in experiment [4], 36 µM. For the same molecule, the FRAP value in experiment [3] is 16.212 ± 1.271 mmol Fe^2+/g and 16.2 ± 1.3 ^a mmol Fe^2+/g. The “DPPH IC50” value in experiment [4] (extracts/fractions) was 9.0 ± 0.3 ^f µg/mL.

Turning to “1-(3,4-dihydroxy-5-methoxyphenyl)-1,2-dihydroxy-7,8-dihydroxy-N-[(4-hydroxyphenyl)-ethyl]-N′-[(4-hydroxyphenyl) -ethyl]-6-methoxynaphthalene-2,3-dicarboxamide [compound 12]”, the “UF-RBA XOD (relative binding affinity = Aactive/Ainactivated)” value in the experiment on xanthine oxidase (XOD) was 1.7 ± 0.5 ^b,c; in the experiment with xanthine oxidase (XOD) (listed as peak 12), 1.70. In addition, in experiment [1], the “UF-RBA SOD (relative binding affinity = Aactive/Ainactivated)” value was “-”. The results for the IC50 in experiment [2] and in experiment [4] were 1150 ± 630 µM and 142 ± 36.1 µM, respectively. In experiment [3], the FRAP value is listed as 1.1 ± 0.2 ^c mmol Fe^2+/g.

Values taken from paper PMC8001783, “New Lignanamides with Antioxidant and Anti-Inflammatory Activities Screened Out and Identified from Warburgia ugandensis Combining Affinity Ultrafiltration LC-MS with SOD and XOD Enzymes” (Antioxidants, 2021).
